From the supplement of paper PMC8617591

How the values were obtained:
[1] = system: Mycobacterium tuberculosis Erdman (autoluminescent); assay: total FIC50 (Loewe) at 50% inhibition, three-drug combination (log2); higher = more antagonistic
Protocol: (§1)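 DiaMOND equipotent three-drug combination dose responses (10 doses, 1.5- or 2-fold spacing, centred on IC90) against autoluminescent M. tuberculosis Erdman in 8 in vitro models. Read-out is OD600, or luminescence for the intracellular and dormancy models, normalised to untreated wells. Hill-fit Einf, AUC25 and GRinf are potency metrics; FIC50 and FIC90 are total Loewe fractional inhibitory concentrations as log2 (negative = synergy).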

[2] = system: Mycobacterium tuberculosis Erdman (autoluminescent); assay: total FIC90 (Loewe) at 90% inhibition, three-drug combination (log2); higher = more antagonistic
Protocol: as §1

[3] = system: Mycobacterium tuberculosis Erdman (autoluminescent); assay: Einf, fitted maximum growth inhibition of three-drug combination (fraction); higher = stronger maximal inhibition
Protocol: as §1

[4] = system: Mycobacterium tuberculosis Erdman (autoluminescent); assay: AUC25, normalised area under dose response up to IC25 (three-drug combination) (fraction (0-1)); higher = more potent at low dose
Protocol: as §1

[5] = system: Mycobacterium tuberculosis Erdman (autoluminescent); assay: GRinf, maximum normalised growth rate inhibition (three-drug combination) (unitless (-1 to 1)); higher = less effect (negative = killing)
Protocol: as §1

COc1nc2ccc(Br)cc2cc1[C@@H](c1ccccc1)[C@@](O)(CCN(C)C)c1cccc2ccccc12 [bedaquiline] + COc1c(N2C[C@@H]3CCCN[C@@H]3C2)c(F)cc2c(=O)c(C(=O)O)cn(C3CC3)c12 [moxifloxacin] + O=[N+]([O-])c1cn2c(n1)OC[C@@H](OCc1ccc(OC(F)(F)F)cc1)C2 [pretomanid]
Details | AUC25, [4] | Einf, [3] | GRinf, [5] | total FIC50, [1] | total FIC90, [2]
in vitro model: acidic pH 5.7, time point: constant (~7 days, model-specific) | 0.1 | 0.838 | -0.377 | 0.596 | –
in vitro model: acidic pH 5.7, time point: terminal (~4-5 doublings, model-specific) | 0.0692 | 0.971 | -0.329 | 0.946 | 0.743
in vitro model: intracellular J774, time point: constant = terminal | – | 0.972 | -0.42 | – | 0.518

Details | AUC25, [4] | Einf, [3] | GRinf, [5] | total FIC50, [1] | total FIC90, [2]
in vitro model: butyrate, time point: constant (~7 days, model-specific) | 0.11 | 0.974 | -0.202 | 0.96 | 1.4
in vitro model: butyrate, time point: terminal (~4-5 doublings, model-specific) | 0.0807 | 0.979 | -0.386 | 1.02 | 1.52
in vitro model: cholesterol 0.05 mM, time point: constant (~7 days, model-specific) | 0.102 | 0.689 | -0.187 | 0.771 | –
in vitro model: cholesterol 0.05 mM, time point: terminal (~4-5 doublings, model-specific) | 0.0953 | 0.946 | -0.21 | 0.672 | 0.565
in vitro model: cholesterol-high 0.2 mM, time point: constant (~7 days, model-specific) | 0.0866 | 0.945 | -0.309 | 0.743 | 1.24
in vitro model: cholesterol-high 0.2 mM, time point: terminal (~4-5 doublings, model-specific) | 0.082 | 1 | -0.571 | 0.598 | 0.93
in vitro model: dormancy (butyrate + nitrate, low O2), time point: constant (~7 days, model-specific) | 0.0412 | 0.905 | 0.272 | 0.0257 | -0.733
in vitro model: dormancy (butyrate + nitrate, low O2), time point: terminal (~4-5 doublings, model-specific) | 0.0577 | 0.995 | -0.1 | 0.157 | 0.118
in vitro model: standard 7H9 glycerol, time point: constant = terminal | 0.08 | 0.98 | -0.122 | -0.0856 | -0.137
in vitro model: valerate, time point: constant (~7 days, model-specific) | 0.123 | 0.932 | -0.393 | 0.261 | –
in vitro model: valerate, time point: terminal (~4-5 doublings, model-specific) | 0.0843 | 0.956 | -0.165 | 0.431 | 0.866

COc1nc2ccc(Br)cc2cc1[C@@H](c1ccccc1)[C@@](O)(CCN(C)C)c1cccc2ccccc12 [bedaquiline] + NC(=O)c1cnccn1 [pyrazinamide] + CO[C@H]1/C=C/O[C@@]2(C)Oc3c(C)c(O)c4c(O)c(c(/C=N/N5CCN(C6CCCC6)CC5)c(O)c4c3C2=O)NC(=O)/C(C)=C\C=C\[C@H](C)[C@H](O)[C@@H](C)[C@@H](O)[C@@H](C)[C@H](OC(C)=O)[C@@H]1C [rifapentine]
Details | AUC25, [4] | Einf, [3] | GRinf, [5] | total FIC50, [1] | total FIC90, [2]
in vitro model: acidic pH 5.7, time point: constant (~7 days, model-specific) | 0.105 | 0.951 | -0.444 | 0.212 | –
in vitro model: acidic pH 5.7, time point: terminal (~4-5 doublings, model-specific) | 0.0905 | 0.987 | -0.331 | 0.0918 | 0.167
in vitro model: intracellular J774, time point: constant = terminal | – | 0.984 | -0.419 | – | 0.111

Details | AUC25, [4] | Einf, [3] | GRinf, [5] | total FIC50, [1] | total FIC90, [2]
in vitro model: butyrate, time point: constant (~7 days, model-specific) | 0.109 | 0.973 | -0.292 | 0.368 | 0.452
in vitro model: butyrate, time point: terminal (~4-5 doublings, model-specific) | 0.0948 | 0.995 | -0.264 | 0.608 | 0.896
in vitro model: cholesterol 0.05 mM, time point: constant (~7 days, model-specific) | 0.113 | 0.75 | -0.416 | – | –
in vitro model: cholesterol 0.05 mM, time point: terminal (~4-5 doublings, model-specific) | 0.0882 | 0.854 | -0.194 | 0.907 | –
in vitro model: cholesterol-high 0.2 mM, time point: constant (~7 days, model-specific) | 0.0619 | 0.959 | -0.405 | 0.688 | –
in vitro model: cholesterol-high 0.2 mM, time point: terminal (~4-5 doublings, model-specific) | 0.0597 | 1 | -0.644 | 1.1 | 0.6
in vitro model: dormancy (butyrate + nitrate, low O2), time point: constant (~7 days, model-specific) | 0.0664 | 0.907 | 0.181 | -0.395 | -0.492
in vitro model: dormancy (butyrate + nitrate, low O2), time point: terminal (~4-5 doublings, model-specific) | 0.0515 | 0.988 | -0.135 | 0.0969 | -0.227
in vitro model: standard 7H9 glycerol, time point: constant = terminal | 0.0752 | 0.917 | 0.0581 | -0.269 | –
in vitro model: valerate, time point: constant (~7 days, model-specific) | 0.0676 | 0.855 | -0.194 | 0.992 | –
in vitro model: valerate, time point: terminal (~4-5 doublings, model-specific) | 0.0334 | 0.939 | -0.182 | 0.965 | 0.779

COc1nc2ccc(Br)cc2cc1[C@@H](c1ccccc1)[C@@](O)(CCN(C)C)c1cccc2ccccc12 [bedaquiline] + NC(=O)c1cnccn1 [pyrazinamide] + CO[C@H]1/C=C/O[C@@]2(C)Oc3c(C)c(O)c4c(O)c(c(/C=N/N5CCN(C)CC5)c(O)c4c3C2=O)NC(=O)/C(C)=C\C=C\[C@H](C)[C@H](O)[C@@H](C)[C@@H](O)[C@@H](C)[C@H](OC(C)=O)[C@@H]1C [rifampicin]
Details | AUC25, [4] | Einf, [3] | GRinf, [5] | total FIC50, [1] | total FIC90, [2]
in vitro model: acidic pH 5.7, time point: constant (~7 days, model-specific) | 0.0834 | 0.901 | -0.315 | 0.337 | –
in vitro model: acidic pH 5.7, time point: terminal (~4-5 doublings, model-specific) | 0.0711 | 0.981 | -0.241 | 0.285 | -0.207
in vitro model: intracellular J774, time point: constant = terminal | – | 0.999 | -0.44 | – | 0.24

Details | AUC25, [4] | Einf, [3] | GRinf, [5] | total FIC50, [1] | total FIC90, [2]
in vitro model: butyrate, time point: constant (~7 days, model-specific) | 0.118 | 0.967 | -0.45 | 0.454 | 0.281
in vitro model: butyrate, time point: terminal (~4-5 doublings, model-specific) | 0.11 | 0.993 | -0.729 | 0.529 | 0.948
in vitro model: cholesterol 0.05 mM, time point: constant (~7 days, model-specific) | 0.102 | 0.776 | -0.214 | – | –
in vitro model: cholesterol 0.05 mM, time point: terminal (~4-5 doublings, model-specific) | 0.0832 | 0.929 | -0.267 | 1.1 | –
in vitro model: cholesterol-high 0.2 mM, time point: constant (~7 days, model-specific) | 0.0476 | 0.933 | -0.352 | 0.834 | –
in vitro model: cholesterol-high 0.2 mM, time point: terminal (~4-5 doublings, model-specific) | 0.0598 | 1 | -0.624 | 1.34 | 0.74
in vitro model: dormancy (butyrate + nitrate, low O2), time point: constant (~7 days, model-specific) | 0.0673 | 0.914 | 0.179 | -0.454 | -0.722
in vitro model: dormancy (butyrate + nitrate, low O2), time point: terminal (~4-5 doublings, model-specific) | 0.0465 | 0.984 | -0.139 | -0.149 | -0.476
in vitro model: standard 7H9 glycerol, time point: constant = terminal | 0.0766 | 0.913 | 0.0332 | 0.401 | –
in vitro model: valerate, time point: constant (~7 days, model-specific) | 0.0558 | 0.839 | 0.0298 | 0.905 | –
in vitro model: valerate, time point: terminal (~4-5 doublings, model-specific) | 0.032 | 0.935 | 0.00447 | 0.857 | 0.584
